Values quoted from earlier work in patent US11094527B2, “Wet clean solutions to prevent pattern collapse” (INTERNATIONAL BUSINESS MACHINES CORPORATION, priority 2018, dated 2021).
Like-named read-outs stand apart in the source and are kept apart here.

Key:
[1] = not given; remark: listed apart in the source

Water solubility ([1]; temperature not given) | Compound | Surface tension (at about 20° C.) [mN/m] | Water solubility (in words) [1] | Water solubility ([1]; 20° C.) [g/100 mL]
 | c1ccccc1 [Benzene] | <30 |  | 
Miscible | CC(C)O [Isopropyl alcohol, reference compound] | <30 | miscible in water | 
 | Diethyl ether | 16.5 | low water solubility | 6.9
